Experimental data from patent publication US8877800B2, “Kappa-opiate agonists for the treatment of diarrhea-predominant irritable bowel syndrome” (Tioga Pharmaceuticals, Inc., priority 2007, dated 2014).
pIC50: −log10 of the molar value.

What was measured:
[1] = moisture, heat, aerial oxygen, light; cited from earlier work
[2] = cited from earlier work
[3] = cited from earlier work; remark: listed apart in the source
delta opiate receptor = delta opiate receptor (Homo sapiens, UniProt P41143); test: selectivity: IC50 at delta opiate receptor relative to kappa; assay type: binding; details: ratio kappa:mu:delta
patients with IBS = test: Example 1: randomized, double-blind, placebo controlled 4-week on-demand asimadoline study in participants with IBS; details: for Δ Pain intensity (mean ± SE): VAS, 2 hours after first dose
mu opiate receptor = mu opiate receptor (Homo sapiens, UniProt P35372); test: selectivity: IC50 at mu opiate receptor relative to kappa; assay type: binding; details: ratio kappa:mu:delta
[4] = system: IBS-D, IBS-C and IBS-A patients; test: Example 2: 12-week randomized, double-blind, dose-ranging, placebo-controlled fixed-dose asimadoline study in IBS; assay type: in vivo, human; details: for urgency: all three months; for improvement over placebo in percent number of months with adequate relief / percent number of months with adequate relief of IBS pain or discomfort: all IBS subjects with moderate or severe pain
Method: Diarrhea-predominant (IBS-D), constipation-predominant (IBS-C), and alternating IBS (IBS-A) patients were recruited from 120 sites in the United States. Patients underwent a two week screening period to ensure adequate symptoms and compliance with the interactive voice response system (IVRS) data collection system, followed by twelve weeks of treatment and a four week follow-up period. Patients received identical appearing placebo, 0.15 mg, 0.5 mg or 1.0 mg asimadoline tablets b.i.d. for the 12 week treatment period. During screening, treatment and follow-up patients entered data every day on the IVRS.
The primary endpoint was the number of months a patient was a responder for adequate relief, where the primary measure was the question, “In the past 7 days have you had adequate relief of your IBS pain or discomfort?” This measure was asked once every 7 days and a monthly responder replied “yes” at least 3 weeks per month. Numerous secondary endpoints, abdominal pain or discomfort, stool frequency, urgency, bloating, stool consistency, adequate relief of IBS symptoms and straining were also collected. Additionally, adverse clinical events, laboratory test data and electrocardiograms (ECGs) were collected.
Of the 596 subjects who were randomized, 344 reported baseline pain scores of 2.0 or higher. The pain score was a self reported score on a scale of 0-3, where 0=no pain, 1=mild pain, 2=moderate pain and 3=severe pain Subjects having scores of 2.0 or higher were categorized as having moderate or severe pain. Of the 344 moderate or severe pain subjects, 104 were classified as having IBS-D, 114 IBS-A and 126 IBS-C.

[5] = system: gastric and colon distention; details: animal models; cited from earlier work
kappa-opiate receptor = kappa-opiate receptor (Homo sapiens, UniProt P41145); details: read-out: affinity for the kappa-opiate receptor, IC50; cited from earlier work
IBS patients = details: Bardhan et al., Aliment Pharmacol Ther 2000; 14:23-34; cited from earlier work

Sequence of kappa-opiate receptor (P41145 whole entry): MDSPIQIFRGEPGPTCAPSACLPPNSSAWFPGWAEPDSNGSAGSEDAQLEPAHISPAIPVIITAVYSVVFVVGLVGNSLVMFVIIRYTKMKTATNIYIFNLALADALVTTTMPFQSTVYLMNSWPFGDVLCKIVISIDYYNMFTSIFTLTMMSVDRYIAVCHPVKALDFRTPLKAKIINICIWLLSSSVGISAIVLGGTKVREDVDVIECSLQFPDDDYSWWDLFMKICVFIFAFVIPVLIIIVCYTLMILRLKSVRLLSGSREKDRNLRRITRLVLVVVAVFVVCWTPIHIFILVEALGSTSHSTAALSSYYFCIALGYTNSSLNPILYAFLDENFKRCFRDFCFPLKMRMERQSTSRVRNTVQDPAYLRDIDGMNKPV
Sequence of mu opiate receptor (P35372 whole entry): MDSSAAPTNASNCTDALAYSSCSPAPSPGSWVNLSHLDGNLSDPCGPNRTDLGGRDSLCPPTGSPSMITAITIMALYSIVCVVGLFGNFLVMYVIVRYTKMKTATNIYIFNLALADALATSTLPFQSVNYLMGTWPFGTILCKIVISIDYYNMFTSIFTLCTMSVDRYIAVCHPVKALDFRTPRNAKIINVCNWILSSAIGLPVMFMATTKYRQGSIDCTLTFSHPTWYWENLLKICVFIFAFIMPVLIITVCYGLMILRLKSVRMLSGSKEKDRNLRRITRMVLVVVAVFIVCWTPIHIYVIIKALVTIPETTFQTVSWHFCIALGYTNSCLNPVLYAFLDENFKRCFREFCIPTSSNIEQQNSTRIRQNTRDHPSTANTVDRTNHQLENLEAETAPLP
Sequence of delta opiate receptor (P41143 whole entry): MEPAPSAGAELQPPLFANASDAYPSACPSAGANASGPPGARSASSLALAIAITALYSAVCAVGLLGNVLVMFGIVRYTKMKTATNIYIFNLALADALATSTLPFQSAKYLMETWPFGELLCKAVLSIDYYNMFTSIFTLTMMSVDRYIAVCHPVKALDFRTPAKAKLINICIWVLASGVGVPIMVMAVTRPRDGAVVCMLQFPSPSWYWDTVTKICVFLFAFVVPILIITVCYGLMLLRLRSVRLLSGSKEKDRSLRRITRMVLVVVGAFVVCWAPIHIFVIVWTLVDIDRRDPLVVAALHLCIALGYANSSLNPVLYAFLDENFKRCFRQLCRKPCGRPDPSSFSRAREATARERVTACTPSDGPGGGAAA

CN(C(=O)C(c1ccccc1)c1ccccc1)[C@H](CN1CC[C@H](O)C1)c1ccccc1.Cl [Asimadoline, N-[(1S)-2-[(3S)-3-hydroxypyrrolidin-1-yl]-1-phenylethyl]-N-methyl-2,2-diphenylacetamide, hydrochloride]
stability of the substance [1]: slightly sensitive to moisture, but stable against heat, aerial oxygen and light
solubility in ethanol ([2]; ethanol): 5400 µg/mL
solubility in water ([2]; water): 11600 µg/mL
bioavailability ([3]; fasting subjects): 50%
effect of eating on bioavailability ([3]; food interaction studies): eating does not substantially impact bioavailability
half-life ([3]; in vivo): 2 to 3 h
penetration of the blood-brain barrier ([3]; in vivo): poor penetration of the blood-brain barrier
ratio of IC50 values, delta relative to kappa (kappa = 1) (delta opiate receptor): ~498
Proportion of days with adequate relief of symptoms (mean ± SE) (patients with IBS; IBS-A): 0.46 ± 0.08
change in bowel movements per day, corrected for placebo change from baseline (patients with IBS; IBS-A): increase
delta pain intensity scores relative to placebo (patients with IBS; IBS-A (alternators), p=0.003): significantly better than placebo
Δ Pain intensity (mean ± SE) (patients with IBS; IBS-A, unadjusted p = 0.003 vs placebo): 37.8 ± 3.7 mm
Δ mean # stools, treatment compared to baseline (patients with IBS; IBS-A, on-demand, 4 weeks): 0.0 ± 0.1
Δ mean ease of passage, treatment compared to baseline (patients with IBS; IBS-A, on-demand, 4 weeks): 0.0 ± 0.1
Δ mean stool form, treatment compared to baseline (patients with IBS; IBS-A, on-demand, 4 weeks): 0.2 ± 0.2
Proportion of days with adequate relief of symptoms (mean ± SE) (patients with IBS; IBS-C): 0.11 ± 0.07
change in bowel movements per day, corrected for placebo change from baseline (patients with IBS; IBS-C): increase
Δ Pain intensity (mean ± SE) (patients with IBS; IBS-C): 23.8 ± 4.0 mm
Δ mean ease of passage, treatment compared to baseline (patients with IBS; IBS-C, on-demand, 4 weeks): −0.1 ± 0.1
Δ mean stool form, treatment compared to baseline (patients with IBS; IBS-C, on-demand, 4 weeks): 0.0 ± 0.2
Proportion of days with adequate relief of symptoms (mean ± SE) (patients with IBS; IBS-D): 0.45 ± 0.08
change in bowel movements per day, corrected for placebo change from baseline (patients with IBS; IBS-D): decrease
Δ Pain intensity (mean ± SE) (patients with IBS; IBS-D): 25.0 ± 2.9 mm
Δ mean # stools, treatment compared to baseline (patients with IBS; IBS-D, on-demand, 4 weeks): −0.3 ± 0.1
Δ mean ease of passage, treatment compared to baseline (patients with IBS; IBS-D, on-demand, 4 weeks): −0.1 ± 0.1
Δ mean stool form, treatment compared to baseline (patients with IBS; IBS-D, on-demand, 4 weeks): −0.1 ± 0.2
Adverse events: Body as a whole (patients with IBS; on-demand, 4 weeks): 15.00%
Adverse events: Central and peripheral nervous system (patients with IBS; on-demand, 4 weeks): 48.33%
Adverse events: Gastrointestinal (patients with IBS; on-demand, 4 weeks): 16.67%
Adverse events: Genitourinary (patients with IBS; on-demand, 4 weeks): 1.67%
Adverse events: Musculoskeletal (patients with IBS; on-demand, 4 weeks): 6.67%
Adverse events: Psychiatric (patients with IBS; on-demand, 4 weeks): 15.00%
Adverse events: Respiratory (patients with IBS; on-demand, 4 weeks): 33.33%
serious clinical or laboratory adverse events (patients with IBS; on-demand, 4 weeks): no serious clinical or laboratory adverse events
tolerability (patients with IBS; on-demand, 4 weeks): well tolerated
ratio of IC50 values, mu relative to kappa (kappa = 1) (mu opiate receptor): ~501
Adverse events: Abdominal pain ([4]; 0.15 mg b.i.d.): 5.4%
Adverse events: Constipation ([4]; 0.15 mg b.i.d.): 12.8%
Adverse events: Diarrhea ([4]; 0.15 mg b.i.d.): 13.4%
Adverse events: Dizziness ([4]; 0.15 mg b.i.d.): 2.7%
Adverse events: Headache ([4]; 0.15 mg b.i.d.): 9.4%
Adverse events: Nausea ([4]; 0.15 mg b.i.d.): 5.4%
Adverse events: Sinusitis ([4]; 0.15 mg b.i.d.): 4.7%
Adverse events: Abdominal pain ([4]; 0.5 mg b.i.d.): 4.6%
Adverse events: Constipation ([4]; 0.5 mg b.i.d.): 10.5%
Adverse events: Diarrhea ([4]; 0.5 mg b.i.d.): 5.9%
Adverse events: Dizziness ([4]; 0.5 mg b.i.d.): 1.3%
Adverse events: Headache ([4]; 0.5 mg b.i.d.): 4.6%
Adverse events: Nausea ([4]; 0.5 mg b.i.d.): 8.6%
Adverse events: Sinusitis ([4]; 0.5 mg b.i.d.): 2.6%
Adverse events: Abdominal pain ([4]; 1.0 mg b.i.d.): 4.2%
Adverse events: Constipation ([4]; 1.0 mg b.i.d.): 7.6%
Adverse events: Diarrhea ([4]; 1.0 mg b.i.d.): 11.1%
Adverse events: Dizziness ([4]; 1.0 mg b.i.d.): 2.1%
Adverse events: Headache ([4]; 1.0 mg b.i.d.): 5.6%
Adverse events: Nausea ([4]; 1.0 mg b.i.d.): 2.8%
Adverse events: Sinusitis ([4]; 1.0 mg b.i.d.): 6.3%
serious clinical or laboratory adverse events related to the treatment ([4]; 0.15, 0.5 or 1.0 mg b.i.d., 12 weeks): No serious clinical or laboratory adverse events
pain scores ([4]; IBS-A subjects at these dosages): No statistically significant improvement
percent months with adequate relief of IBS pain or discomfort ([4]; IBS-A, moderate or severe pain, 1.0 mg b.i.d., placebo 27%, p=0.022): 50%
proportion of months with adequate relief of overall IBS symptoms ([4]; IBS-A, moderate or severe pain, 1.0 mg b.i.d., placebo 30%, p=0.032): 57%
percentage of monthly responders (adequate relief of pain or discomfort) ([4]; IBS-A, 1.0 mg b.i.d., first month, placebo 19%, p=0.017): 46%
abdominal pain or discomfort associated with IBS ([4]; IBS-C subjects with moderate or severe pain): no statistically significant improvement
stool consistency ([4]; IBS-D and IBS-C subjects, any of the three dosages): no statistically significant changes
bloating ([4]; IBS-D, baseline pain scores ≧2.0, 1.0 mg, second month): statistically significant reductions
percent months with adequate relief of IBS pain or discomfort ([4]; IBS-D, moderate or severe pain, 0.5 mg b.i.d., placebo 20%, p=0.011): 47%
proportion of months with adequate relief of overall IBS symptoms ([4]; IBS-D, moderate or severe pain, 0.5 mg b.i.d., placebo 23%, p=0.038): 47%
urgency ([4]; IBS-D, moderate or severe pain, 0.5 mg): statistically significant reductions
daily stool frequency ([4]; IBS-D, moderate or severe pain, 0.5 mg, from week 3 to end of treatment): dramatic decrease
bloating ([4]; IBS-D, moderate or severe pain, 0.5 mg, second and third months): Significant reductions
proportion of months with adequate relief of overall IBS symptoms ([4]; IBS-D, moderate or severe pain, 1.0 mg b.i.d., placebo 23%, p=0.039): 43%
urgency ([4]; IBS-D, moderate or severe pain, 1.0 mg): statistically significant reductions
improvement in the percentage of pain-free days over placebo ([4]; IBS-D, pain scores ≧2.0, 0.5 mg b.i.d., weeks 1-12): ~30%
results in female versus male IBS-D subjects (adequate relief) ([4]; IBS-D, 0.5 mg): highly similar results
percentage of monthly responders (adequate relief of pain or discomfort) ([4]; IBS-D, 0.5 mg b.i.d., month 1, placebo 20%, p=0.045): 48%
percentage of monthly responders (adequate relief of pain or discomfort) ([4]; IBS-D, 0.5 mg b.i.d., month 2, placebo 18%, p=0.010): 52%
percentage of monthly responders (adequate relief of pain or discomfort) ([4]; IBS-D, 0.5 mg b.i.d., month 3, placebo 27%, p=0.010): 50%
pain scores ([4]; IBS-D, 0.5 mg, every week starting at week 3 and every month): statistically significant improvement
more pain free days compared to placebo ([4]; IBS-D, 0.5 mg, over the 3 month study): 21 days
pain scores ([4]; IBS-D, 1.0 mg, every month and six of the twelve weeks): statistically significant improvement
improvement over placebo in percent number of months with adequate relief ([4]; 0.5 mg b.i.d.): 17%
percent number of months with adequate relief of IBS pain or discomfort ([4]; 0.5 mg b.i.d., placebo 23%, p=0.006): 40%
improvement over placebo in percent number of months with adequate relief ([4]; 1.0 mg b.i.d.): 17%
percent number of months with adequate relief of IBS pain or discomfort ([4]; 1.0 mg b.i.d., placebo 23%, p=0.005): 40%
tolerability ([4]; fixed dose, 12 weeks): well tolerated
sensation responses to gastric and colon distention [5]: reduce sensation responses
pIC50 (kappa-opiate receptor): 8.92

Cc1[nH]cnc1CN1CCc2c(c3ccccc3n2C)C1=O [LOTRONEX]
improvement in the percentage of pain-free days (IBS patients): 10%
